The source of these data is US7956074B2, “Aryl-isoxazolo-4-yl-oxadiazole derivatives” (Hoffman-La Roche Inc., priority 2005, dated 2011).

This assay addresses T1, GABA A receptor α5β3γ2 (Homo sapiens, UniProt P18507+P31644).
T1 construct: expressed in transfected cells; host or cells: HEK293 cells, transiently transfected; membranes prepared
The assay can be described thus: [3H]flumazenil competition binding, human GABA A α5β3γ2. The following applies: competition for [3H]flumazenil (0.5 nM) binding, HEK293 cells expressing human (transiently transfected) α5β3γ2; means of two determinations; read-out: Ki[nM] hα5. The procedure, abridged:
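HEK293 membranes expressing GABA-A receptors (human transiently, rat stably transfected) were used for [3H]flumazenil competition in Krebs-tris buffer, pH 7.5. Incubation ran 1 h at 4 °C to equilibrium, followed by filtration and scintillation counting. Ki values are means of two determinations.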

In general, Ki refers to a measure of affinity in units of concentration, obtained from inhibition or displacement. Consider `COc1cc(N2CCOCC2)ccc1-c1nnc(-c2c(-c3ccc(C)cc3)noc2C)o1` [Example 104, 4-(3-Methoxy-4-{5-[5-methyl-3-(4-methyl-phenyl)-isoxazol-4-yl]-[1,3,4]oxadiazol-2-yl}-phenyl)-morpholine], for which the inhibition constant (Ki) turned out to be 12.1 nM.
The figure for `COc1cc([N+](=O)[O-])ccc1-c1nnc(-c2c(-c3ccccc3)noc2C)o1` [Example 11, 2-(2-Methoxy-4-nitro-phenyl)-5-(5-methyl-3-phenyl-isoxazol-4-yl)-[1,3,4]oxadiazole] is 171 nM.
“N-Cyclopropylmethyl-4-[5-(5-methyl-3-phenyl-isoxazol-4-yl)-[1,3,4]oxadiazol-2-yl]-benzamide [Example 79]”: the Ki stood at 235 nM.
On to `COc1cc(F)ccc1-c1nnc(-c2c(-c3ccccc3)noc2C2CC2)o1` [Example 73, 2-(5-Cyclopropyl-3-phenyl-isoxazol-4-yl)-5-(4-fluoro-2-methoxy-phenyl)-[1,3,4]oxadiazole], for which the Ki was 11.9 nM.
The figure for `Cc1onc(-c2ccccc2)c1-c1nnc(-c2ccc(N3C[C@@H](C)O[C@@H](C)C3)cc2)o1` [Example 41, rac-(2S,6R)-2,6-Dimethyl-4-{4-[5-(5-methyl-3-phenyl-isoxazol-4-yl)-[1,3,4]oxadiazol-2-yl]-phenyl}-morpholine] is 32.5 nM; for `Cc1onc(-c2ccccc2)c1-c1nnc(-c2ccc(C#N)cc2)o1` [Example 57, 4-[5-(5-Methyl-3-phenyl-isoxazol-4-yl)-[1,3,4]oxadiazol-2-yl]-benzonitrile] it is 84.2 nM; for `Cc1onc(-c2ccccc2)c1-c1nnc(-c2ccccc2)o1` [Example 1, 2-(5-Methyl-3-phenyl-isoxazol-4-yl)-5-phenyl-[1,3,4]oxadiazole] it is 400 nM.
Then `COc1cc(N2CCC(O)CC2)ccc1-c1nnc(-c2c(-c3ccccc3)noc2C)o1` [Example 29, 1-{3-Methoxy-4-[5-(5-methyl-3-phenyl-isoxazol-4-yl)-[1,3,4]oxadiazol-2-yl]-phenyl}-piperidin-4-ol], with 6 nM; and `COc1cc(NCCSC)c(F)cc1-c1nnc(-c2c(-c3ccccc3)noc2C)o1` [Example 126, {2-Fluoro-5-methoxy-4-[5-(5-methyl-3-phenyl-isoxazol-4-yl)-[1,3,4]oxadiazol-2-yl]-phenyl}-(2-methylsulfanyl-ethyl)-amine], with 4.5 nM.
Turning to `COc1cc(NCC2CC2)ccc1-c1nnc(-c2c(-c3ccccc3)noc2C)o1` [Example 19, Cyclopropylmethyl-{3-methoxy-4-[5-(5-methyl-3-phenyl-isoxazol-4-yl)-[1,3,4]oxadiazol-2-yl]-phenyl}-amine], the Ki is 11.6 nM.
Then `Cc1onc(-c2ccccc2)c1-c1nnc(-c2ccccc2OC(F)(F)F)o1` [Example 43, 2-(5-Methyl-3-phenyl-isoxazol-4-yl)-5-(2-trifluoromethoxy-phenyl)-[1,3,4]oxadiazole], with 131 nM; and `COc1cc(N2CCOCC2)ccc1-c1nnc(-c2conc2-c2ccccc2)o1` [Example 95, 4-{3-Methoxy-4-[5-(3-phenyl-isoxazol-4-yl)-[1,3,4]oxadiazol-2-yl]-phenyl}-morpholine], with 44.5 nM; and `COc1cc(NCC2CC2)ccc1-c1nnc(-c2c(-c3ccccc3)noc2CCC2CC2)o1` [Example 18, (4-{5-[5-(2-Cyclopropyl-ethyl)-3-phenyl-isoxazol-4-yl]-[1,3,4]oxadiazol-2-yl}-3-methoxy-phenyl)-cyclopropylmethyl-amine], with 124 nM.
The figure for `Cc1onc(-c2ccccc2)c1-c1nnc(-c2ccc(F)cc2F)o1` [Example 76, 2-(2,4-Difluoro-phenyl)-5-(5-methyl-3-phenyl-isoxazol-4-yl)-[1,3,4]oxadiazole] is 189 nM; for `Cc1onc(-c2ccccc2)c1-c1nnc(-c2cc(F)c(N3CCS(=O)(=O)CC3)cc2F)o1` [Example 120, 4-{2,5-Difluoro-4-[5-(5-methyl-3-phenyl-isoxazol-4-yl)-[1,3,4]oxadiazol-2-yl]-phenyl}-thiomorpholine 1,1-dioxide] it is 13.5 nM.
In the case of `COc1cc(N2CCS(=O)(=O)CC2)ccc1-c1nnc(-c2c(-c3ccccc3)noc2C)o1` [Example 28, 4-{3-Methoxy-4-[5-(5-methyl-3-phenyl-isoxazol-4-yl)-[1,3,4]oxadiazol-2-yl]-phenyl}-thiomorpholine 1,1-dioxide], the Ki turned out to be 3.2 nM.
As to `Cc1onc(-c2ccccc2)c1-c1nnc(-c2ccc(N3CCOCC3)nc2)o1` [Example 136, 4-{5-[5-(5-Methyl-3-phenyl-isoxazol-4-yl)-[1,3,4]oxadiazol-2-yl]-pyridin-2-yl}-morpholine], the Ki was determined as 15.3 nM.
Then `Cc1onc(-c2ccccc2)c1-c1nnc(-c2ccc3[nH]c(=O)[nH]c3c2)o1` [Example 34, 5-[5-(5-Methyl-3-phenyl-isoxazol-4-yl)-[1,3,4]oxadiazol-2-yl]-1,3-dihydro-benzoimidazol-2-one], with 7.9 nM; and `COc1cc(NCC2CCCO2)c(F)cc1-c1nnc(-c2c(-c3ccccc3)noc2C)o1` (racemic) [Example 130, rac-{2-Fluoro-5-methoxy-4-[5-(5-methyl-3-phenyl-isoxazol-4-yl)-[1,3,4]oxadiazol-2-yl]-phenyl}-(tetrahydro-furan-2-ylmethyl)-amine], with 10.5 nM; and `COc1cc(N2CC[S+]([O-])CC2)ccc1-c1nnc(-c2c(-c3ccccc3)noc2C)o1` [Example 56, 4-{3-Methoxy-4-[5-(5-methyl-3-phenyl-isoxazol-4-yl)-[1,3,4]oxadiazol-2-yl]-phenyl}-thiomorpholine 1-oxide], with 2.2 nM.
Regarding `Cc1onc(-c2ccccc2)c1-c1nnc(-c2ccccc2N)o1` [Example 12, 2-[5-(5-Methyl-3-phenyl-isoxazol-4-yl)-[1,3,4]oxadiazol-2-yl]-phenylamine], the Ki turned out to be 106 nM.
Then `Cc1onc(-c2ccccc2)c1-c1nnc(-c2ccc(NC3CCOCC3)nc2)o1` [Example 139, {5-[5-(5-Methyl-3-phenyl-isoxazol-4-yl)-[1,3,4]oxadiazol-2-yl]-pyridin-2-yl}-(tetrahydro-pyran-4-yl)-amine], with 16.4 nM; and `CCNc1onc(-c2ccccc2)c1-c1nnc(-c2ccc(N3CCOCC3)cc2OC)o1` [Example 111, Ethyl-{4-[5-(2-methoxy-4-morpholin-4-yl-phenyl)-[1,3,4]oxadiazol-2-yl]-3-phenyl-isoxazol-5-yl}-amine], with 4.9 nM; and `Cc1onc(-c2ccccc2)c1-c1nnc(-c2cc(F)ccc2F)o1` [Example 83, 2-(2,5-Difluoro-phenyl)-5-(5-methyl-3-phenyl-isoxazol-4-yl)-[1,3,4]oxadiazole], with 163 nM.
The figure for `COc1ccc(-c2nnc(-c3c(-c4ccccc4)noc3C)o2)c(Cl)n1` [Example 99, 2-Chloro-6-methoxy-3-[5-(5-methyl-3-phenyl-isoxazol-4-yl)-[1,3,4]oxadiazol-2-yl]-pyridine] is 95.8 nM; for `COc1cc(F)ccc1-c1nnc(-c2c(-c3ccccc3)noc2C(C)C)o1` [Example 61, 2-(4-Fluoro-2-methoxy-phenyl)-5-(5-isopropyl-3-phenyl-isoxazol-4-yl)-[1,3,4]oxadiazole] it is 17.7 nM; for `COc1ncccc1-c1nnc(-c2c(-c3ccccc3)noc2C)o1` [Example 93, 2-Methoxy-3-[5-(5-methyl-3-phenyl-isoxazol-4-yl)-[1,3,4]oxadiazol-2-yl]-pyridine] it is 22.8 nM.
The figure for `Cc1onc(-c2ccccc2)c1-c1nnc(-c2ccc3[nH]cnc3c2)o1` [Example 27, 5-[5-(5-Methyl-3-phenyl-isoxazol-4-yl)-[1,3,4]oxadiazol-2-yl]-1H-benzoimidazole] is 22.1 nM; for `Cc1onc(-c2ccccc2)c1-c1nnc(-c2ccc(OC(F)F)cc2)o1` [Example 52, 2-(4-Difluoromethoxy-phenyl)-5-(5-methyl-3-phenyl-isoxazol-4-yl)-[1,3,4]oxadiazole] it is 58.9 nM; for `Cc1onc(-c2ccccc2)c1-c1nnc(-c2ccc([N+](=O)[O-])cc2)o1` [Example 32, 5-(5-Methyl-3-phenyl-isoxazol-4-yl)-2-(4-nitro-phenyl)-[1,3,4]oxadiazole] it is 240 nM.
For the compound `Cc1onc(-c2ccccc2)c1-c1nnc(-c2ccc(N)cc2)o1` [Example 35, 4-[5-(5-Methyl-3-phenyl-isoxazol-4-yl)-[1,3,4]oxadiazol-2-yl]-phenylamine], the Ki is 31.2 nM.
For the compound `CCC(=O)Nc1ccc(-c2nnc(-c3c(-c4ccccc4)noc3C)o2)c(OC)c1` [Example 90, N-{3-Methoxy-4-[5-(5-methyl-3-phenyl-isoxazol-4-yl)-[1,3,4]oxadiazol-2-yl]-phenyl}-propionamide], the Ki came to 4.8 nM.
Then `COc1cc(N2CCOCC2)ccc1-c1nnc(-c2c(-c3ccccc3Cl)noc2C)o1` [Example 97, 4-(4-{5-[3-(2-Chloro-phenyl)-5-methyl-isoxazol-4-yl]-[1,3,4]oxadiazol-2-yl}-3-methoxy-phenyl)-morpholine], with 105 nM.
The figure for `COc1cc(N2CCOCC2)ccc1-c1nnc(-c2conc2-c2ccc(F)cc2)o1` [Example 98, 4-(4-{5-[3-(4-Fluoro-phenyl)-isoxazol-4-yl]-[1,3,4]oxadiazol-2-yl}-3-methoxy-phenyl)-morpholine] is 49 nM; for `COc1cc(NCc2ccccn2)c(F)cc1-c1nnc(-c2c(-c3ccccc3)noc2C)o1` [Example 131, {2-Fluoro-5-methoxy-4-[5-(5-methyl-3-phenyl-isoxazol-4-yl)-[1,3,4]oxadiazol-2-yl]-phenyl}-pyridin-2-ylmethyl-amine] it is 21.2 nM.
Consider `Cc1onc(-c2ccccc2)c1-c1nnc(-c2ccc(N)nc2)o1` [Example 48, 5-[5-(5-Methyl-3-phenyl-isoxazol-4-yl)-[1,3,4]oxadiazol-2-yl]-pyridin-2-ylamine], for which the Ki amounted to 38.9 nM.
